{"source": "paper PMC8969299", "about": "(Chemical Engineering Journal, 2022)", "key": {"[1]": {"assay": "Fluorescence lifetime of COVID19-PEB before/after annealing", "type": "physicochemical", "settings": "before annealing; Oligo-Cy3 and Oligo-BHQ2 fixed at 10 nmol; Fig. 3c"}, "SARS-CoV-2 [2]": {"test_system": "SARS-CoV-2", "assay": "Fluorescence"}, "influenza A virus": {"test_system": "influenza A virus", "assay": "Fluorescence response of COVID19-PEB to influenza A virus", "parameters": "species or system influenza A (pH1N1) virus (Human/Canada/2009)", "settings": "COVID 19-PEB 10 nmol in 100 µL; 25 °C; n = 3; Fig. 4d"}, "influenza B virus": {"test_system": "influenza B virus", "assay": "Fluorescence response of COVID19-PEB to influenza B virus", "parameters": "species or system influenza B viruses (Victoria Brisbane/20/2009)", "settings": "COVID 19-PEB 10 nmol in 100 µL; 25 °C; n = 3; Fig. 4e"}, "HCoV-OC43": {"test_system": "HCoV-OC43", "assay": "Fluorescence response of COVID19-PEB to HCoV-OC43", "parameters": "species or system Human coronavirus OC43 (HCoV-OC43)", "settings": "COVID 19-PEB 10 nmol in 100 µL; 25 °C; n = 3; Fig. 4f"}, "SARS-CoV-2 [3]": {"test_system": "SARS-CoV-2", "assay": "Fluorescence detection of SARS-CoV-2 in biofluids", "settings": "10% nasal fluid and 10% saliva; n = 3; Fig. 5"}, "SARS-CoV-2 [4]": {"test_system": "SARS-CoV-2", "assay": "Detection of SARS-CoV-2 in clinical patient samples using COVID19-PEB"}, "[5]": {"test_system": "SARS-CoV-2 and its variants"}, "SARS-CoV-2 S protein RBD": {"target": "SARS-CoV-2 S protein RBD (Severe acute respiratory syndrome coronavirus 2, UniProt P0DTC2)"}}, "data": [{"substance": "Cy3-TTTTGGGGG- I EEQA KTFL DKFN HEAE DLFY QSSL ASWK-CCCCCAAAA-BHQ2 [COVID19-PEB]", "values": [{"measurement": "fluorescence lifetime", "setting": "[1]", "result": "2.23 ± 0.02", "unit": "ns"}, {"measurement": "detection time, SARS-CoV-2", "setting": "SARS-CoV-2 [2]; COVID19-PEB", "result": "≤ 3", "unit": "h"}, {"measurement": "detection time, SARS-CoV-2 (shortest stated)", "setting": "SARS-CoV-2 [2]; COVID19-PEB", "result": "≤ 50", "unit": "min"}, {"measurement": "time within which intensity change could be measured, SARS-CoV-2", "setting": "SARS-CoV-2 [2]; COVID 19-PEB 10 nmol, Fig. S4", "result": "≤ 1", "unit": "h"}, {"measurement": "detection limit, SARS-CoV-2", "setting": "SARS-CoV-2 [2]; COVID19-PEB fluorescence, 100 µL test", "result": "4 × 10^3 plaque-forming unit/test"}, {"measurement": "change in fluorescence signal, influenza A virus", "setting": "influenza A virus", "result": "no change in fluorescence signal was observed"}, {"measurement": "change in fluorescence signal, influenza B virus", "setting": "influenza B virus", "result": "no change in fluorescence signal was observed"}, {"measurement": "change in fluorescence signal, HCoV-OC43", "setting": "HCoV-OC43", "result": "no change in fluorescence signal was observed"}, {"measurement": "detection of SARS-CoV-2 in biofluid", "setting": "SARS-CoV-2 [3]", "result": "efficiently detected SARS-CoV-2 in the biofluid, with high sensitivity"}, {"measurement": "detection of virus in PCR-confirmed patient samples", "setting": "SARS-CoV-2 [4]", "result": "accurately detected the virus"}, {"measurement": "discrimination among genetic mutations in SARS-CoV-2", "setting": "[5]", "result": "does not effectively discriminate among the genetic mutations in SARS-CoV-2"}, {"measurement": "detection of SARS-CoV-2 and its variants", "setting": "[5]; Fig. S5", "result": "useful for sensitive and rapid detection of SARS-CoV-2 and its variants"}, {"measurement": "fluorescence intensity with increasing concentration of S proteins", "setting": "SARS-CoV-2 S protein RBD", "result": "gradually increased with the increasing concentration of the S proteins"}, {"measurement": "time within which intensity change could be measured, S protein RBD", "setting": "SARS-CoV-2 S protein RBD", "result": "≤ 1", "unit": "h"}]}]}
